Experimental data reported in patent publication US11730720B2, “ALK5 inhibitors” (THERAVANCE BIOPHARMA R&D IP, LLC, priority 2018, dated 2023).
pKi: −log10 of the molar value.

What was measured:
[1] = target: T1, recombinant human ALK5 (TGF-βR1) protein (Homo sapiens, UniProt P36897); assay: Biochemical ALK5 (TGF-βR1) assay to measure pKi (LANCE Ultra ULight kinase assay); conditions: apparent pKi, converted from pIC50 using the Cheng-Prusoff equation
T1 construct: purchased Life Technologies PR9075A
T1 sequence (P36897 34-503): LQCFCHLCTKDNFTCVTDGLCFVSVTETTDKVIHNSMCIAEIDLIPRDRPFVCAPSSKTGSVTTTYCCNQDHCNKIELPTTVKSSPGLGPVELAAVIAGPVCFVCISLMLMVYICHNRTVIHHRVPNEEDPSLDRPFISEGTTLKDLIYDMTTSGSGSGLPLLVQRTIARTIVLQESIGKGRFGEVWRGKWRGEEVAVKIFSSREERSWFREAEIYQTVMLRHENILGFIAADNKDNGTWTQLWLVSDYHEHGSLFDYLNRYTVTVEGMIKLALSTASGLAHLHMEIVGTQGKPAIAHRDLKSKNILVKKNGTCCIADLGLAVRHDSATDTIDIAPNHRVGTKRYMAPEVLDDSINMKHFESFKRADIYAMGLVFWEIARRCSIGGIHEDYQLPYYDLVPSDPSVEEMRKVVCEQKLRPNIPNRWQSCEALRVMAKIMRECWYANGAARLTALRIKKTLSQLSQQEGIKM
How it was run: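 TR-FRET kinase format: compound dose range 10 μM–25 pM equilibrated 60 min with human ALK5 and ULight-labelled topoisomerase 2α peptide in HEPES/MgCl2 buffer pH 7.5 with DTT. Reaction started with ATP (125 μM stock, 5× final), 60 min at 37° C, stopped with EDTA/Eu-anti-phospho antibody; pKi derived from pIC50 via Cheng-Prusoff.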

[2] = tested on: TGF-β-stimulated SMAD3 phosphorylation in BEAS-2B cells; assay: Cellular ALK5 potency assay, inhibition of TGF-β stimulated pSMAD3 formation in BEAS-2B cells; type: cell-based; conditions: Homo sapiens, inhibition of TGF-β (10 ng/mL) stimulated pSMAD3 formation, 1 hour compound incubation, read-out: BEAS2B pIC50 (converted)
How it was run: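 Phospho-SMAD3 was quantified by AlphaLISA in lysates of human lung epithelial BEAS-2B cells. Compound was added 1 h (37 °C, HEPES/BSA-supplemented HBSS) before a 30 min challenge with 10 ng/mL TGF-β. Values are pIC50 relative to stimulated cells without compound.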

Row | pKi [1] | Structure (SMILES) | IC50 [2] [nM]
1 | 9.50 to 10.40 | CC(C)NCCN1CCN(c2cnc3ccc(-c4c[nH]nc4-c4cc(Cl)c(F)cc4F)nc3c2)CC1 [Compound 6-39, N-[2-[4-[6-[3-(5-chloro-2,4-difluoro-phenyl)-1H-pyrazol-4-yl]-1,5-naphthyridin-3-yl]piperazin-1-yl]ethyl]propan-2-amine] | 25.1 to 158
2 | ≥ 10.50 | CNCCn1ccc(-c2cnc3ccc(-c4c[nH]nc4-c4cc(Cl)c(F)cc4F)nc3c2)n1 [Compound 6-40, 2-(3-(6-(3-(5-chloro-2,4-difluorophenyl)-1H-pyrazol-4-yl)-1,5-naphthyridin-3-yl)-1H-pyrazol-1-yl)-N-methylethan-1-amine] | ≤ 20
3 | ≥ 10.50 | NCCn1cc(-c2cnc3ccc(-c4c[nH]nc4-c4cc(Cl)c(F)cc4F)nc3c2)cn1 [Compound 6-41, 2-[4-[6-[3-(5-chloro-2,4-difluoro-phenyl)-1H-pyrazol-4-yl]-1,5-naphthyridin-3-yl]pyrazol-1-yl]ethanamine] | 25.1 to 158
4 | 9.50 to 10.40 | Fc1cc(F)c(-c2n[nH]cc2-c2ccc3ncc(-c4cnn(CC5CNC5)c4)cc3n2)cc1Cl [Compound 6-42, 7-[1-(azetidin-3-ylmethyl)pyrazol-4-yl]-2-[3-(5-chloro-2,4-difluoro-phenyl)-1H-pyrazol-4-yl]-1,5-naphthyridine] | 25.1 to 158
5 | 9.50 to 10.40 | CN1CC=C(c2cnc3ccc(-c4c[nH]nc4-c4cc(Cl)c(F)cc4F)nc3c2)C1 [Compound 6-43, 2-(3-(5-chloro-2,4-difluorophenyl)-1H-pyrazol-4-yl)-7-(1-methyl-2,5-dihydro-1H-pyrrol-3-yl)-1,5-naphthyridine] | ≤ 20
6 | 9.50 to 10.40 | CC(C)N1CC=C(c2cnc3ccc(-c4c[nH]nc4-c4cc(Cl)c(F)cc4F)nc3c2)C1 [Compound 6-44, 2-[3-(5-chloro-2,4-difluoro-phenyl)-1H-pyrazol-4-yl]-7-(1-isopropyl-2,5-dihydropyrrol-3-yl)-1,5-naphthyridine] | ≤ 20
7 | 9.50 to 10.40 | Fc1cc(F)c(-c2n[nH]cc2-c2ccc3ncc(-c4cnn5c4CNCC5)cc3n2)cc1Cl [Compound 6-45, 2-(3-(5-chloro-2,4-difluorophenyl)-1H-pyrazol-4-yl)-7-(4,5,6,7-tetrahydropyrazolo[1,5-a]pyrazin-3-yl)-1,5-naphthyridine] | 25.1 to 158
8 | 9.50 to 10.40 | Fc1cc(F)c(-c2n[nH]cc2-c2ccc3ncc(-c4nc5n(n4)CCNC5)cc3n2)cc1Cl [Compound 6-46, 2-[3-(5-chloro-2,4-difluoro-phenyl)-1H-pyrazol-4-yl]-7-(5,6,7,8-tetrahydro-[1,2,4]triazolo[1,5-a]pyrazin-2-yl)-1,5-naphthyridine] | 25.1 to 158
9 | 8.50 to 9.40 | Fc1cc(F)c(-c2n[nH]cc2-c2ccc3ncc(-c4nnn5c4NCCC5)cc3n2)cc1Cl [Compound 6-47, 2-[3-(5-chloro-2,4-difluoro-phenyl)-1H-pyrazol-4-yl]-7-(4,5,6,7-tetrahydrotriazolo[1,5-a]pyrimidin-3-yl)-1,5-naphthyridine] | 25.1 to 158
10 | 8.50 to 9.40 | Fc1cc(F)c(-c2n[nH]cc2-c2ccc3ncc(-c4cnc5n4CCNC5)cc3n2)cc1Cl [Compound 6-48, 2-[3-(5-chloro-2,4-difluoro-phenyl)-1H-pyrazol-4-yl]-7-(5,6,7,8-tetrahydroimidazo[1,2-a]pyrazin-3-yl)-1,5-naphthyridine] | 25.1 to 158
11 | 9.50 to 10.40 | Fc1cc(F)c(-c2n[nH]cc2-c2ccc3ncc(-c4ncn5c4CNCC5)cc3n2)cc1Cl [Compound 6-49, 2-[3-(5-chloro-2,4-difluoro-phenyl)-1H-pyrazol-4-yl]-7-(5,6,7,8-tetrahydroimidazo[1,5-a]pyrazin-1-yl)-1,5-naphthyridine] | 25.1 to 158
12 | 7.50 to 8.40 | Fc1cc(F)c(-c2n[nH]cc2-c2ccc3ncc(-c4nc(C(F)(F)F)n5c4CNCC5)cc3n2)cc1Cl [Compound 6-50, 2-[3-(5-chloro-2,4-difluoro-phenyl)-1H-pyrazol-4-yl]-7-[3-(trifluoromethyl)-5,6,7,8-tetrahydroimidazo[1,5-a]pyrazin-1-yl]-1,5-naphthyridine] | 25.1 to 158
13 | 8.50 to 9.40 | Fc1cc(F)c(-c2n[nH]cc2-c2ccc3ncc(-c4ncc5n4CCNC5)cc3n2)cc1Cl [Compound 6-51, 2-[3-(5-chloro-2,4-difluoro-phenyl)-1H-pyrazol-4-yl]-7-(5,6,7,8-tetrahydroimidazo[1,5-a]pyrazin-3-yl)-1,5-naphthyridine] | 25.1 to 158
14 | 9.50 to 10.40 | Fc1cc(F)c(-c2n[nH]cc2-c2ccc3ncc(-c4cn5c(n4)CNCC5)cc3n2)cc1Cl [Compound 6-52, 2-[3-(5-chloro-2,4-difluoro-phenyl)-1H-pyrazol-4-yl]-7-(5,6,7,8-tetrahydroimidazo[1,2-a]pyrazin-2-yl)-1,5-naphthyridine] | 25.1 to 158
15 | 9.50 to 10.40 | Fc1cc(F)c(-c2n[nH]cc2-c2ccc3ncc(-c4[nH]nc5c4CCNC5)cc3n2)cc1Cl [Compound 6-53, 2-[3-(5-chloro-2,4-difluoro-phenyl)-1H-pyrazol-4-yl]-7-(4,5,6,7-tetrahydro-2H-pyrazolo[3,4-c]pyridin-3-yl)-1,5-naphthyridine] | 25.1 to 158
16 | 9.50 to 10.40 | Fc1cc(F)c(-c2n[nH]cc2-c2ccc3ncc(-c4cnc5n4CCN5)cc3n2)cc1Cl [Compound 6-54, 2-[3-(5-chloro-2,4-difluoro-phenyl)-1H-pyrazol-4-yl]-7-(6,7-dihydro-5H-imidazo[1,2-a]imidazol-3-yl)-1,5-naphthyridine] | 25.1 to 158
17 | 9.50 to 10.40 | Fc1cc(F)c(-c2n[nH]cc2-c2ccc3ncc(-c4ncn5c4NCC5)cc3n2)cc1Cl [Compound 6-55, 2-[3-(5-chloro-2,4-difluoro-phenyl)-1H-pyrazol-4-yl]-7-(2,3-dihydro-1H-imidazo[1,5-a]imidazol-7-yl)-1,5-naphthyridine] | 25.1 to 158
18 | 9.50 to 10.40 | Fc1cc(F)c(-c2n[nH]cc2-c2ccc3ncc(-c4cc5n(n4)CCNC5)cc3n2)cc1Cl [Compound 6-56, 2-[3-(5-chloro-2,4-difluoro-phenyl)-1H-pyrazol-4-yl]-7-(4,5,6,7-tetrahydropyrazolo[1,5-a]pyrazin-2-yl)-1,5-naphthyridine] | 25.1 to 158
19 | 8.50 to 9.40 | Fc1cc(F)c(-c2n[nH]cc2-c2ccc3ncc(-c4nnn5c4CNCC5)cc3n2)cc1Cl [Compound 6-57, 2-[3-(5-chloro-2,4-difluoro-phenyl)-1H-pyrazol-4-yl]-7-(4,5,6,7-tetrahydrotriazolo[1,5-a]pyrazin-3-yl)-1,5-naphthyridine] | 25.1 to 158
20 | 9.50 to 10.40 | Fc1cc(F)c(-c2n[nH]cc2-c2ccc3ncc(-c4nnn5c4NCC5)cc3n2)cc1Cl [Compound 6-58, 2-[3-(5-chloro-2,4-difluoro-phenyl)-1H-pyrazol-4-yl]-7-(5,6-dihydro-4H-imidazo[1,2-c]triazol-3-yl)-1,5-naphthyridine] | 25.1 to 158
21 | 9.50 to 10.40 | Fc1cc(F)c(-c2n[nH]cc2-c2ccc3ncc(-c4[nH]nc5c4CCN5)cc3n2)cc1Cl [Compound 6-59, 2-[3-(5-chloro-2,4-difluoro-phenyl)-1H-pyrazol-4-yl]-7-(2,4,5,6-tetrahydropyrrolo[2,3-c]pyrazol-3-yl)-1,5-naphthyridine] | 25.1 to 158
22 | 8.50 to 9.40 | Fc1cc(F)c(-c2n[nH]cc2-c2ccc3ncc(-c4cnc5n4CCCN5)cc3n2)cc1Cl [Compound 6-60, 2-[3-(5-chloro-2,4-difluoro-phenyl)-1H-pyrazol-4-yl]-7-(5,6,7,8-tetrahydroimidazo[1,2-a]pyrimidin-3-yl)-1,5-naphthyridine] | 25.1 to 158
23 | 9.50 to 10.40 | COC(=O)N1CCc2nnc(-c3cnc4ccc(-c5c[nH]nc5-c5cc(Cl)c(F)cc5F)nc4c3)cc2C1 [Compound 6-61, methyl 3-[6-[3-(5-chloro-2,4-difluoro-phenyl)-1H-pyrazol-4-yl]-1,5-naphthyridin-3-yl]-7,8-dihydro-5H-pyrido[4,3-c]pyridazine-6-carboxylate] | 25.1 to 158
24 | 9.50 to 10.40 | Fc1cc(F)c(-c2n[nH]cc2-c2ccc3ncc(-c4cn(Cc5c[nH]cn5)nn4)cc3n2)cc1Cl [Compound 6-62, 7-(1-((1H-imidazol-4-yl)methyl)-1H-1,2,3-triazol-4-yl)-2-(3-(5-chloro-2,4-difluorophenyl)-1H-pyrazol-4-yl)-1,5-naphthyridine] | 25.1 to 158
25 | 9.50 to 10.40 | Fc1cc(F)c(-c2n[nH]cc2-c2ccc3ncc(-c4cn(Cc5cnc6c(c5)CNCC6)nn4)cc3n2)cc1Cl [Compound 6-63, 2-[3-(5-chloro-2,4-difluoro-phenyl)-1H-pyrazol-4-yl]-7-[1-(5,6,7,8-tetrahydro-1,6-naphthyridin-3-ylmethyl)triazol-4-yl]-1,5-naphthyridine] | 25.1 to 158
